Test results: ChEMBL document CHEMBL6074643, “Harnessing dual-mode RIPK1 ligands for cross-species anti-necroptosis inhibitor compounds” (Bioorg Med Chem Lett, 2024)
Active and inactive are the calls of the source. No cut-off for these calls is given here.

Legend:
[1] = biological target: T1, Receptor-interacting serine/threonine-protein kinase 1 (Homo sapiens, UniProt Q13546); test: Inhibition of human RIPK1 by ADP-Glo kinase assay
T1 sequence (Q13546 whole entry): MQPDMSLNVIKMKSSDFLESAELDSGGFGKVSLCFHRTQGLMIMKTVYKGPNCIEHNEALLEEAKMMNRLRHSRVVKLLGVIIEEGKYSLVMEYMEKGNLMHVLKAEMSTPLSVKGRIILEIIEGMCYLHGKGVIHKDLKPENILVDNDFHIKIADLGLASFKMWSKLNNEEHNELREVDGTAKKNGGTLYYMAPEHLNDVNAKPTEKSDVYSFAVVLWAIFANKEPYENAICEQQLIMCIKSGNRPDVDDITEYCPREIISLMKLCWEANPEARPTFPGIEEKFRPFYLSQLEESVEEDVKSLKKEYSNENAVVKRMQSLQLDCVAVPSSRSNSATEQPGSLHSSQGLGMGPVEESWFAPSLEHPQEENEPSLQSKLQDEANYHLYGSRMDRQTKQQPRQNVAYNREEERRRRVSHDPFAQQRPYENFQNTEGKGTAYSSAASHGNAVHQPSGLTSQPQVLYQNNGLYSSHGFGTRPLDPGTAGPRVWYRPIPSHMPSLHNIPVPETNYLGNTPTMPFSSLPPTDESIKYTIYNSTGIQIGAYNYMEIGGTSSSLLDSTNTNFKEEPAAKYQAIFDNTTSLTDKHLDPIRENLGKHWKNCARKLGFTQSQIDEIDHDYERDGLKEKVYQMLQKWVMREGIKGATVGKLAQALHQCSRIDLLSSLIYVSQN

[2] = Intrinsic clearance in mouse liver microsomes measured per mg protein; format: ADME, Microsome; settings: read-out: CLH
[3] = Intrinsic clearance in human liver microsomes measured per mg protein; format: ADME, Microsome; settings: read-out: CLH
[4] = Plasma concentration in non-fasted NMRI mouse at 10 mg/kg, po measured after 2 hrs by HPLC-MS analysis; format: ADME, organism-based
[5] = Plasma concentration in non-fasted NMRI mouse at 10 mg/kg, po measured after 0.5 hrs by HPLC-MS analysis; format: ADME, organism-based
Mus musculus = test: In vivo inhibition of RIPK1 in TNF-alpha-induced acute hypothermia NMRI mouse model assessed as decrease in TNF-alpha-induced severe core body temperature loss at 30 mg/kg, po administered 15 mins prior to TNF-alpha challenge and measured at 90 mins interval for 6 hrs; format: functional, organism-based; settings: time 375.0 min

Row | SMILES | Ki [1] [µM] | microsomal CLint [2] [µL/min/mg] | microsomal CLint [3] [µL/min/mg] | concentration at 2 h [4] [nM] | concentration at 0.5 h [5] [nM] | inhibition (Mus musculus)
1 | CN1C(=O)C(C(=O)Nc2cn(Cc3ccccc3)cn2)CCc2ccc(C#CC3(O)COC3)cc21 (configuration not stated) | 0.038 | 128 | 44.4 | – | – | –
2 | CC#Cc1ccc2c(c1)N(C)C(=O)C(C(=O)Nc1cn(Cc3ccccc3)cn1)CC2 (configuration not stated) | 0.0355 | 312 | 105 | – | – | –
3 | CN1C(=O)C(C(=O)Nc2cn(Cc3ccccc3)cn2)CCc2cc(Br)ccc21 (configuration not stated) | 0.363 | 176 | 31.1 | – | – | –
4 | CN1C(=O)C(C(=O)Nc2cn(Cc3ccccc3)cn2)CCc2cc(C#CC3(O)COC3)ccc21 (configuration not stated) | 0.191 | 42.2 | 18.2 | – | – | –
5 | CN1C(=O)C(C(=O)Nc2cn(Cc3ccccc3)cn2)CCc2ccc(C#CC(C)(C)O)cc21 (racemic) | 0.0589 | 158 | 26.5 | – | – | –
6 | CN1C(=O)C(C(=O)Nc2cn(Cc3ccccc3)cn2)CCc2ccc(C#CC3CC3)cc21 (configuration not stated) | 0.0288 | 300 | 66.5 | – | – | –
7 | CN1C(=O)C(C(=O)Nc2cn(Cc3ccccc3)cn2)CCc2cc(C#CC(C)(C)O)ccc21 (configuration not stated) | 0.251 | 29.4 | 6.6 | – | – | –
8 | CN1C(=O)[C@H](C(=O)Nc2cn(Cc3ccccc3)cn2)CCc2ccc(C#CC(C)(C)O)cc21 | 0.398 | 202 | 32.7 | – | – | –
9 | CN1C(=O)C(C(=O)Nc2cn(Cc3ccccc3)cn2)CCc2ccc(Br)cc21 (configuration not stated) | 0.0871 | 211 | 75.7 | – | – | –
10 | CC(C)C#Cc1ccc2c(c1)N(C)C(=O)C(C(=O)Nc1cn(Cc3ccccc3)cn1)CC2 (configuration not stated) | 0.0759 | 693 | 99 | – | – | –
11 | CN1C(=O)C(C(=O)Nc2cn(Cc3ccccc3)cn2)CCc2ccc(C#CC(C)(C)N)cc21 (configuration not stated) | 0.0661 | 50.8 | 21.1 | – | – | –

The next lines start with results.

Row | Ki [1] [µM] | microsomal CLint [2] [µL/min/mg] | microsomal CLint [3] [µL/min/mg] | concentration at 2 h [4] [nM] | concentration at 0.5 h [5] [nM] | SMILES | inhibition (Mus musculus)
12 | 0.002 | – | – | – | – | CN1C(=O)[C@@H](NC(=O)c2nnc(Cc3ccccc3)[nH]2)COc2cccnc21 [ECLITASERTIB] | –
13 | 0.0115 | 33 | 7.6 | 329 | 1340 | CN1C(=O)[C@@H](C(=O)Nc2cn(Cc3ccccc3)cn2)CCc2ccc(C#CC(C)(C)O)cc21 | Active
14 | 0.0282 | 238 | 124 | – | – | CN1C(=O)C(C(=O)Nc2cn(Cc3ccccc3)cn2)CCc2ccc(C#CC3(C)COC3)cc21 (configuration not stated) | –
15 | 0.0224 | 234 | 106 | – | – | CN1C(=O)C(C(=O)Nc2cn(Cc3ccccc3)cn2)CCc2ccc(C#CC3CCOCC3)cc21 (configuration not stated) | –
16 | 0.0257 | 210 | 194 | – | – | COC(C)(C)C#Cc1ccc2c(c1)N(C)C(=O)C(C(=O)Nc1cn(Cc3ccccc3)cn1)CC2 (configuration not stated) | –
17 | 0.0275 | 29 | 7.7 | – | – | CC(=O)NC(C)(C)C#Cc1ccc2c(c1)N(C)C(=O)C(C(=O)Nc1cn(Cc3ccccc3)cn1)CC2 (configuration not stated) | –
